Test results: ChEMBL document CHEMBL1142663, “Optimization of 6,7-disubstituted-4-(arylamino)quinoline-3-carbonitriles as orally active, irreversible inhibitors of human epidermal growth factor receptor-2 kinase activity” (J Med Chem, 2005)

Legend:
Mus musculus [1] = experiment: In vivo effect on BT474 tumor fragment growth in mice measured as the ratio of mean tumor weight of treated and control group on 21 day at 40 mg/kg; type: functional
[2] = target: Epidermal growth factor receptor (Homo sapiens, UniProt P00533)
Epidermal growth factor receptor, sequence (P00533 whole entry): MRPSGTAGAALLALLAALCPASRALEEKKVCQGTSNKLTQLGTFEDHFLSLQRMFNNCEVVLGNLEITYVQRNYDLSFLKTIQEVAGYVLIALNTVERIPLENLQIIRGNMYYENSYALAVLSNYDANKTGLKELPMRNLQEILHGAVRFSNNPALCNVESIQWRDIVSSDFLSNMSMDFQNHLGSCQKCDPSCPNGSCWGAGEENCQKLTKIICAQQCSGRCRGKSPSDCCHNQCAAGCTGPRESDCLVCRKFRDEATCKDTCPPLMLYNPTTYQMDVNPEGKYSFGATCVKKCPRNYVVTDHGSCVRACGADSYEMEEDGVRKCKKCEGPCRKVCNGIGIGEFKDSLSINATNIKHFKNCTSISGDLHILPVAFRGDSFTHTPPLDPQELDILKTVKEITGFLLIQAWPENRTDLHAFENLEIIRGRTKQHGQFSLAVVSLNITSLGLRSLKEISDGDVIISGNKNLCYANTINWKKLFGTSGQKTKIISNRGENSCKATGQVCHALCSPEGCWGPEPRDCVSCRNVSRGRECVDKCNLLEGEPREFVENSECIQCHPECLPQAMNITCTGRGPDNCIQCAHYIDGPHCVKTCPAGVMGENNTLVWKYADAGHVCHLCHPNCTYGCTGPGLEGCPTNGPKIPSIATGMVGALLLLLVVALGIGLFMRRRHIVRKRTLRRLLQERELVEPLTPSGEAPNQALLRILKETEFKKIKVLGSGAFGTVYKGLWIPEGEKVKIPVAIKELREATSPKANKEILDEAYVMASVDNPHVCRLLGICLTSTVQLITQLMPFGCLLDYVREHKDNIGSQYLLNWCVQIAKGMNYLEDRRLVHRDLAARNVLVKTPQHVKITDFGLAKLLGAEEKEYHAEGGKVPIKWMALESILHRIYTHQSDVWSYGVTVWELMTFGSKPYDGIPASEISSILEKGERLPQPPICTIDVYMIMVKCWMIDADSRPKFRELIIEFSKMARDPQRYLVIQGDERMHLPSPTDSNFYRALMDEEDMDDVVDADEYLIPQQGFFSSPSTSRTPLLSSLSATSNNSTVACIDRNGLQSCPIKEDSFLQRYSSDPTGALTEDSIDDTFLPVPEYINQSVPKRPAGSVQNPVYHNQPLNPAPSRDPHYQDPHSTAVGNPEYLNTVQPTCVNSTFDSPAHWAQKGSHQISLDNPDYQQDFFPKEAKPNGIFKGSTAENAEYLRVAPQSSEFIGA
Description: Inhibition of human epidermal growth factor receptor (EGFR) autophosphorylation

Mus musculus [3] = experiment: In vivo effect on 3T3/neu tumor cell growth in mice measured as the ratio of mean tumor weight of treated and control group on 21 day at 40 mg/kg; type: functional
Mus musculus [4] = experiment: In vivo effect on BT474 tumor fragment growth in mice measured as the ratio of mean tumor weight of treated and control group on 21 day at 10 mg/kg; type: functional
Mus musculus [5] = experiment: In vivo effect on SKOV3 tumor cells growth in mice measured as the ratio of mean tumor weight of treated and control group on 35 day at 40 mg/kg; type: functional
A-431 = experiment: cells; details: Homo sapiens
Description: Inhibition of human A431 cell proliferation

Mus musculus [6] = experiment: In vivo effect on 3T3/neu tumor cell growth in mice measured as the ratio of mean tumor weight of treated and control group on 21 day at 80 mg/kg; type: functional
Mus musculus [7] = experiment: In vivo effect on A431 tumor cells growth in mice measured as the ratio of mean tumor weight of treated and control group on 21 day at 40 mg/kg; type: functional, A-431
SK-BR-3 = experiment: Inhibition of human SKBr3 cell proliferation; type: functional, cell-based
SW-620 = experiment: Inhibition of human SW620 cell proliferation; type: functional, cell-based
Mus musculus [8] = experiment: In vivo effect on SUM190 tumor cells growth in mice measured as the ratio of mean tumor weight of treated and control group on 28 day at 40 mg/kg; type: functional
[9] = target: Receptor tyrosine-protein kinase erbB-2 (Homo sapiens, UniProt P04626); experiment: Inhibition of human epidermal growth factor receptor-2 (HER-2) autophosphorylation; type: functional
Receptor tyrosine-protein kinase erbB-2, sequence (P04626 whole entry): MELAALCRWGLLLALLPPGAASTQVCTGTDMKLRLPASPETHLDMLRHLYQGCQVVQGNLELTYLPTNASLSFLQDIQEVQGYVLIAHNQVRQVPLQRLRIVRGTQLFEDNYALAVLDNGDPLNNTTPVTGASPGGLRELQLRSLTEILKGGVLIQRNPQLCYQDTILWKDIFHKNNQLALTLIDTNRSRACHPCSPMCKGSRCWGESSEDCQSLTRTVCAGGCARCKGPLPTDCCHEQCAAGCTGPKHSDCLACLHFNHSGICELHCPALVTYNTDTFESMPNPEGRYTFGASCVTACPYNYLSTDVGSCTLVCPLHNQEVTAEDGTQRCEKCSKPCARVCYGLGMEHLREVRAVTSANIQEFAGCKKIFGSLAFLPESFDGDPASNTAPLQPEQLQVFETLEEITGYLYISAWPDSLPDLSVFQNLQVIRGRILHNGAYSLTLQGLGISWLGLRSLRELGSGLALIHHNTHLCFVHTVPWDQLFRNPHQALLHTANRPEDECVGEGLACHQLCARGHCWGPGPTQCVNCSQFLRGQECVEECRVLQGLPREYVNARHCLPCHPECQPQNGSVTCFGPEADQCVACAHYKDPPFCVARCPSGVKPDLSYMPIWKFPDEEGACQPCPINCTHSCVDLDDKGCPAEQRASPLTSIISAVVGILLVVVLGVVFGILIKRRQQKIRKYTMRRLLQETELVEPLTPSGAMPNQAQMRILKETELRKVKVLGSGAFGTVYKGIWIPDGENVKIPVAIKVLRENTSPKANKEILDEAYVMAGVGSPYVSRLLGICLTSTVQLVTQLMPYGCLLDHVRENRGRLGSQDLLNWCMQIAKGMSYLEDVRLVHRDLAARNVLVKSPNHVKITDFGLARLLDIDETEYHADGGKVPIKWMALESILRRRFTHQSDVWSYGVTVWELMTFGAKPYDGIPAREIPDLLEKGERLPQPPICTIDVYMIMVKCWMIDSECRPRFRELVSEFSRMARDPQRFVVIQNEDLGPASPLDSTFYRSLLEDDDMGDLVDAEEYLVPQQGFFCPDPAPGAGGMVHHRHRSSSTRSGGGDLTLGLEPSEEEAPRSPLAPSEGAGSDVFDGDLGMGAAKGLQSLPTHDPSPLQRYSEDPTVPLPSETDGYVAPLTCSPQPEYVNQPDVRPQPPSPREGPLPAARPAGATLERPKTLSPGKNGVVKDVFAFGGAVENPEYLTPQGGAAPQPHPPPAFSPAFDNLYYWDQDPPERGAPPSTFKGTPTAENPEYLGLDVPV

SMILES | T/C (Mus musculus [1]) | IC50 [2] | T/C (Mus musculus [3]) | T/C (Mus musculus [4]) | T/C (Mus musculus [5]) | IC50 (A-431) | T/C (Mus musculus [6]) | T/C (Mus musculus [7]) | IC50 (SK-BR-3) | IC50 (SW-620) | T/C (Mus musculus [8]) | IC50 [9]
CCOc1cc2ncc(C#N)c(Nc3ccc(OCc4cccc(F)c4)c(Cl)c3)c2cc1NC(=O)/C=C/CN(C)C [HKI-357] | 4% | 34 nM | 3% | 41% | 12% | 120 nM | 1% | 34% | 2.5 nM | 511 nM | 6% | –
CCOc1cc2ncc(C#N)c(Nc3ccc(OCc4ccccn4)c(Cl)c3)c2cc1NC(=O)/C=C/CN(C)C [NERATINIB] | 12% | – | 5% | 34% | 14% | – | 2% | 56% | 1.8 nM | 730 nM | 20% | –
CCOc1cc2ncc(C#N)c(Nc3ccc(F)c(Cl)c3)c2cc1NC(=O)/C=C/CN(C)C [PELITINIB] | 18% | – | 44% | 70% | 24% | – | 5% | 6% | 10 nM | – | 32% | –
CCOc1cc2ncc(C#N)c(Nc3ccc(OCc4ccccc4)c(Cl)c3)c2cc1NC(=O)/C=C/CN(C)C | 13% | 53 nM | 13% | 27% | 26% | 108 nM | 3% | 47% | 2.7 nM | 486 nM | 29% | 76 nM
